Data published in patent US11354990B2, “Treatment of kidney diseases associated with elevated AVP” (United States Government As Represented By The Department …, priority 2017, dated 2022).
“Also recorded” adds a separate entry of the source.

How the values were obtained:
rodent models of ADPKD = conditions: cited from earlier work; for cystogenesis: rodent models of ADPKD, by reducing cAMP production in the kidney
P2Y12 receptor = molecular target: T1, P2Y12 receptor (Rattus norvegicus, UniProt Q9EPX4); experiment: Blockade of P2Y12 receptor in primary cultures of rat hypothalamic cells: expression of AVP; type: cell-based
T1 construct: endogenous in cells; host or cells: primary cultures of rat hypothalamic cells

B6D2 mice = experiment: Ticagrelor in diet (or clopidogrel in drinking water) for 14 days: urinary AVP, urine output and urine osmolality in mice; type: in vivo; conditions: for effects shown in FIGS. 2-5 (urine output, urine osmolality, urinary AVP): comparison with other P2Y12 receptor antagonists
Protocol: The study evaluated the effect of increasing doses of ticagrelor from 0.05% to 0.25% (incremental doses of 0.05, 0.10, 0.15, 0.20 and 0.25%) administered to mice for 2 weeks and compared them with that obtained by administering increasing doses of clopidogrel bisulfate (20, 40 or 80 mg/kg bw/day). For this study adult B6D2 mice were used. Different doses of ticagrelor were administered embedded in diet. Clopidogrel bisulfate (Plavix® tablets) were powdered and dissolved in drinking water for administration. The concentration of clopidogrel in the water was adjusted on daily basis based on the water consumption by mice on the previous day.
Rodent diets containing ticagrelor at different concentrations were prepared as follows. 15 grams of ticagrelor was shipped to MP Biomedicals (Solon, Ohio, USA) for custom preparation of 10 kg of rodent chow in pellet form containing 0.15% ticagrelor. The custom-made diet was received and was stored at +4° C. Later in the study, for the preparation of diets containing 0.20% or 0.25%, the above custom-prepared diet (containing 0.15% ticagrelor) was used as a base and the required amount of ticagrelor was added. Diets containing 0.05 and 0.10% ticagrelor were prepared de novo.
Clopidogrel bisulfate was administered orally by mixing finely powdered Plavix® tablets (Bristol-Myers Squibb, New York, N.Y.) in drinking water. The concentration of the drug in the drinking water was adjusted daily based on the water consumption of the animals on the previous day. Three different doses (20, 40 and 80 mg/kg bw/day) were administered. Since it is not possible to work with more than 15 to 20 mice in metabolic cages at any given time, the experimental animals were handled in two batches in a staggered fashion. Urine samples were collected on day 0 (prior to the experimental period), on days 6/7 (end of the first week) and days 13/14 (end of the second week). Terminal blood samples were collected from the posterior vena cava at the time of euthanasia. Kidney tissues were collected and cortex and medulla were separated by sharp dissection and flash frozen for analysis. Within a few minutes after collection, blood samples were centrifuged at +4° C. and plasma was separated and frozen. Urinary AVP levels were assayed by ELISA.
(§1) Different doses of ticagrelor (0.05 to 0.25%) were administered to mice embedded in standard rodent chow (w/w) for 14 days. Twenty-four hour urine samples were collected from the mice by placing them in individual plastic metabolic cages (1 mouse/cage) for two consecutive days, with free access to food and water. Urine samples in the metabolic cages were collected under a layer of light mineral oil. The volumes of urine samples collected were recorded. Urine samples were centrifuged to remove particulate matter. Clear supernatants thus obtained were used for analysis. Blood samples were collected at the time of euthanasia on day 14, as per the protocol recommended by the AstraZeneca for samples destined for the determination of plasma ticagrelor. Briefly, under isoflourane anesthesia, blood from the posterior vena cava was collected and transferred to EDTA K-coated microtubes (Microvette®, Sarstedt, Nümbrecht, Germany). Plasma was separated by centrifugation within 30 min after collection and frozen at −80° C. The frozen samples were shipped in dry ice by FedEx to AstraZeneca (Mölndal, Sweden). At AstraZeneca R&D, the plasma concentration of ticagrelor was determined by liquid chromatography tandem mass spectrometry (LC-MS/MS). FIGS. 1-5 show the data obtained.

[1] = tested on: lithium-induced NDI in rodent models; conditions: cited from earlier work
[2] = tested on: cAMP production in primary cultures of rat IMCD cells; experiment: dDAVP-induced cAMP production in primary cultures of rat IMCD cells (EIA); type: cell-based
Protocol: FIG. 7 is a graph showing the effect of ticagrelor on dDAVP-induced cAMP production in primary cultures of rat IMCD cells: Cells were incubated for 48 h with ticagrelor (5 μM). During the second 24 hours, cells were challenged with dDAVP (20 nM).
dDAVP acting through the vasopressin V2 receptor in IMCD cells stimulates the production of cAMP (FIG. 7). In the collecting ducts in vivo, in the short-term AVP increases cellular cAMP levels to cause translocation of AQP2 protein from the subapical vesicles to apical plasma membrane, and thus increase the water permeability of the apical plasma membrane, the rate limiting barrier for transepithelial water transport. In the long-term, increased cellular cAMP levels induce transcriptional activation of AQP2 and other genes. […] Primary cultures of rat IMCD cells were prepared and incubated with desmopressin with/without ticagrelor (5 μM) as described above. For cAMP assay, the medium was gently aspirated, 200 μl of 0.1 M HCl was added to each insert and incubated for 20 min at room temperature. Then cells were scrapped off the semi-permeable support and lysed by pipetting up and down. The cell lysate was centrifuged at 1,000×g for 10 min. cAMP concentration in the supernatant was determined by an EIA kit (Cayman Chemical Co.) and normalized to the protein content of the wells (Pierce™ BCA Protein Assay Kit, Rockford, Ill.).

[3] = tested on: medullary collecting duct cells; experiment: Proliferation of medullary collecting duct cells; type: cell-based; conditions: increasing concentrations of ticagrelor
[4] = Plasma concentration of ticagrelor by LC-MS/MS in mice fed ticagrelor; type: in vivo; conditions: corresponding to a dose of 0.15% or above in food, day 14
Protocol: as §1

AQP3 = experiment: dDAVP-induced AQP3 mRNA expression in primary cultures of rat IMCD cells (real-time PCR); type: cell-based
Protocol: (§2) FIGS. 6A-C show the effect of ticagrelor on the mRNA expression of AQP2 (A) and AQP3 (B) relative to the expression R3-actin and the effect of ticagrelor on the mRNA expression of AQP2 relative to GAPDH (C) in primary cultures of rat inner medullary collecting duct (IMCD) cells. Cells were incubated with different concentrations of ticagrelor (0.5 to 25 μM) for 48 hours. During the second 24 hours, the cells were challenged with dDAVP (20 nM). The numbers in parentheses above the bars indicate the number of culture wells.
(§3) Primary cultures of rat inner medullary collecting duct (IMCD) cells were prepared. When the cells became 70-80% confluent, the medium was changed to relative starvation mode (low FBS), and used for testing the effect of Desmopressin (dDAVP), a V2 receptor-selective analogue of AVP, and/or ticagrelor. Cells were incubated for 48 h with ticagrelor ranging from 1.5 to 25 μM. During the second 24 hours, cells were challenged with dDAVP (20 nM). At the end of the incubation period, cells were harvested, RNA extracted, reverse transcribed and subjected to real-time PCR to determine the expression of AQP2 and AQP3 genes relative to the expression of the housekeeping genes (β-actin or GAPDH).
(§4) Results (FIGS. 6A-C) are presented as percent of the values in control incubations without any addition of agents. FIGS. 6A-C show the effect of different concentrations of ticagrelor on dDAVP (20 nM)-induced AQP2 or AQP3 expression relative to p-actin expression in primary cultures of rat IMCD cells. Two independent assays on primary cultures of IMCD cells derived from two different rats at different times were used, and the data obtained were pooled for analysis and presentation in the graphs. Data were analyzed by analysis of variance (ANOVA) followed by Tukey-Kramer Multiple Comparison Test. The numbers in parentheses above the bars indicate the number of culture wells.

AQP2 = experiment: dDAVP-induced AQP2 mRNA expression in primary cultures of rat IMCD cells (real-time PCR); type: cell-based
Protocol: as §2, §3, §4

[5] = patients; long-term administration; cited from earlier work
[6] = in vivo; cited from earlier work
vasopressin V2 receptor = vasopressin V2 receptor (Homo sapiens, UniProt P30518); conditions: chronic blockade of vasopressin V2 receptor; cited from earlier work
ADPKD = conditions: clinical trials; cited from earlier work
CYP3A4 system = CYP3A4 system (Homo sapiens, UniProt P08684); conditions: cited from earlier work
[7] = tested on: DBA/2FG-pcy mouse model of ADPKD; conditions: tolvaptan concentrations between 0.01% and 0.30% in food; cited from earlier work
[8] = ticagrelor 0.05 to 0.25% in food, 14 days
[9] = different concentrations of ticagrelor 48 h, dDAVP 20 nM during second 24 h
[10] = different concentrations of ticagrelor 48 h, dDAVP 20 nM during second 24 h, listed as Ticagrelor
[11] = ticagrelor 2 μM, listed as Ticagrelor
[12] = ticagrelor 10 μM, listed as Ticagrelor

Sequence of vasopressin V2 receptor (P30518 whole entry, species assumed): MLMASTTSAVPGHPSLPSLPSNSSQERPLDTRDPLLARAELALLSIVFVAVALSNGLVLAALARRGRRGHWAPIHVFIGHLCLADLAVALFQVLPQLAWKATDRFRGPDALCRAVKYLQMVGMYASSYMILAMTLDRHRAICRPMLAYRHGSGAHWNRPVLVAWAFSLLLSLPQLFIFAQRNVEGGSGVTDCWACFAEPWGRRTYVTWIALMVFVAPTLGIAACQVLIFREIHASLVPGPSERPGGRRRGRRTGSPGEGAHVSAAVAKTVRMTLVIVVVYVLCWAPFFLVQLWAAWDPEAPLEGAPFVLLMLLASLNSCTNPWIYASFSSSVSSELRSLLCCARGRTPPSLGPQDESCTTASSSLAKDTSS
Sequence of CYP3A4 system (P08684 whole entry): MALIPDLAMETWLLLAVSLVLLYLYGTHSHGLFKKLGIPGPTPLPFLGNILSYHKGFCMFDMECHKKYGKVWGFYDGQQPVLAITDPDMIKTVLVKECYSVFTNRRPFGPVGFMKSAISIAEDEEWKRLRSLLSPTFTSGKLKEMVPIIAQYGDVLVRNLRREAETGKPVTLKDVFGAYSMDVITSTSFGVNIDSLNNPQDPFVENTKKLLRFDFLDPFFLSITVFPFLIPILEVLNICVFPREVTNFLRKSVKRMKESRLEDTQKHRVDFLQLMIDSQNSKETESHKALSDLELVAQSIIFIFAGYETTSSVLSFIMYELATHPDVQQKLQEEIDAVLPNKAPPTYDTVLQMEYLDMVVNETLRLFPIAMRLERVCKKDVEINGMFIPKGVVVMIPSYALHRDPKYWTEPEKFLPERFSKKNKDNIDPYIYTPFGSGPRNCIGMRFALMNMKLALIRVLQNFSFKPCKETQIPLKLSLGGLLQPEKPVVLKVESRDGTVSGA
T1 sequence (Q9EPX4 whole entry): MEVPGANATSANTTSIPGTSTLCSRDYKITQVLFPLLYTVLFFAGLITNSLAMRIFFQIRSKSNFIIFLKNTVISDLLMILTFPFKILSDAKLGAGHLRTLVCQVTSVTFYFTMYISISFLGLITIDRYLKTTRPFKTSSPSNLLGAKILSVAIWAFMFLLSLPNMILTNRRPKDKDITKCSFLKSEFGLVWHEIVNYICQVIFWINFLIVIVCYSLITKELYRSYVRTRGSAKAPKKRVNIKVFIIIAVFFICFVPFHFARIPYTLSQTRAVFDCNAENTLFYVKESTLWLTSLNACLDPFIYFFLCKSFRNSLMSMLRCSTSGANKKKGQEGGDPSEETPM

## Cc1ccccc1C(=O)Nc1ccc(C(=O)N2CCCC(N(C)C)c3ccccc32)cc1 (stereo not drawn) [OPC-31260]
Rodent models of ADPKD
  cystogenesis: consistently inhibited

## Nc1c(S(=O)(=O)O)cc(Nc2ccc(Nc3ccccc3)c(S(=O)(=O)O)c2)c2c1C(=O)c1ccccc1C2=O [PSB-0739]
P2Y12 receptor
  expression of AVP: increased

## COC(=O)[C@H](c1ccccc1Cl)N1CCc2sccc2C1 [clopidogrel, clopidogrel bisulfate]
B6D2 mice
  effects shown in FIGS. 2-5 (urine output, urine osmolality, urinary AVP): could not be seen
B6D2 mice; mouse, in vivo
  effect on the production of AVP by the hypothalamus: did not have such an effect
[1]
  lithium-induced NDI: significantly ameliorate

## NC(=O)CC[C@@H]1NC(=O)[C@H](Cc2ccccc2)NC(=O)[C@H](Cc2ccc(O)cc2)NC(=O)CCSSC[C@@H](C(=O)N2CCC[C@H]2C(=O)N[C@H](CCCN=C(N)N)C(=O)NCC(N)=O)NC(=O)[C@H](CC(N)=O)NC1=O [desmopressin, Desmopressin]
[2]; 20 nM desmopressin, IMCD cells
  increase in cellular cAMP levels: 3.6 fold

## CC(=O)Oc1cc2c(s1)CCN(C(C(=O)C1CC1)c1ccccc1F)C2 (stereo not drawn) [prasugrel]
B6D2 mice
  effects shown in FIGS. 2-5 (urine output, urine osmolality, urinary AVP): could not be seen

## CCCSc1nc(N[C@@H]2C[C@H]2c2ccc(F)c(F)c2)c2nnn([C@@H]3C[C@H](OCCO)[C@@H](O)[C@H]3O)c2n1 [ticagrelor]
B6D2 mice; 0.25% ticagrelor in the food
  urinary AVP (vasopressin): marked decrease
  urine concentrating ability: significant reduction
B6D2 mice; lower doses of ticagrelor in the food
  urinary AVP: minimal effect
B6D2 mice; [8]
  urine osmolality: decrease
  urine output: increase
B6D2 mice; ticagrelor 0.05 to 0.25% in food, 14 days, 24-hour urine, normal mice
  urinary AVP excretion: dose-related decrease; also recorded: dose-dependent decrease
B6D2 mice; ticagrelor 0.05 to 0.25% in food, 14 days, assessed by urine output and osmolality
  urinary concentrating ability: dose-related decrease; also recorded: dose-dependent decrease
[3]
  proliferation of medullary collecting duct cells: decrease
[4]
  plasma ticagrelor level above which the relation to urine osmolality and AVP was more pronounced: above 1.30 μM
AQP3; [9]
  effect on dDAVP-induced AQP3 mRNA expression: augmented
AQP3; [10]
  effect on dDAVP-induced AQP3 mRNA expression: tendency for concentration-dependent enhancement
AQP3; ticagrelor 2 μM
  effect on dDAVP-induced AQP3 mRNA expression: augmentative effect was seen; also recorded: tendency to augment
AQP3; [11]
  effect on dDAVP-induced AQP3 mRNA expression: statistically significant
AQP3; ticagrelor 5 μM
  effect on dDAVP-induced increase in AQP3 expression: did not suppress
AQP3; ticagrelor 10 μM
  effect on dDAVP-induced AQP3 mRNA expression: more prominent
AQP3; [12]
  effect on dDAVP-induced AQP3 mRNA expression: statistically significant
AQP3; ticagrelor 25 μM
  effect on AQP3 gene expression: suppressing the gene expression to a very low level; also recorded: almost completely suppressed
AQP2; [9]
  effect on dDAVP-induced AQP2 mRNA expression: augmented
AQP2; [10]
  effect on dDAVP-induced AQP2 mRNA expression: tendency for concentration-dependent enhancement
AQP2; ticagrelor 2 μM
  effect on dDAVP-induced AQP2 mRNA expression: augmentative effect was seen; also recorded: tendency to augment
AQP2; [11]
  effect on dDAVP-induced AQP2 mRNA expression: statistically significant
AQP2; ticagrelor 5 μM
  effect on dDAVP-induced increase in AQP2 expression: did not suppress
AQP2; ticagrelor 10 μM
  effect on dDAVP-induced AQP2 mRNA expression: more prominent
AQP2; [12]
  effect on dDAVP-induced AQP2 mRNA expression: statistically significant
AQP2; ticagrelor 25 μM
  effect on AQP2 gene expression: suppressing the gene expression to a very low level; also recorded: almost completely suppressed
[5]
  side effects: uncontrolled bleeding from wounds or internal ulcers
[2]; 5 μM ticagrelor, 48 h, dDAVP 20 nM
  effect on desmopressin-induced cAMP levels: did not have any significant effect

## Cc1ccccc1C(=O)Nc1ccc(C(=O)N2CCCC(O)c3cc(Cl)ccc32)c(C)c1 (stereo not drawn) [tolvaptan]
[6]
  pharmacokinetics: dose-related pharmacokinetics, it is unpredictable in ADPKD patients
Vasopressin V2 receptor
  endogenous production of AVP: increased
ADPKD
  efficacy for the treatment of ADPKD: established
CYP3A4 system
  metabolism: metabolized by the CYP3A4 system
Rodent models of ADPKD; experimental models of ADPKD
  cyst growth: slow down the cyst growth
Rodent models of ADPKD
  cystogenesis: consistently inhibited
[5]
  side effects: severe polyuria (loss of water in the urine), nocturia (frequent urination in the night), thirst and dry mouth; also recorded: constipation, loss of appetite, dry skin, nausea, vomiting, and potential for acute liver failure
[7]
  optimum concentration in food: 0.10%
